Experimental data as given in ChEMBL document CHEMBL1154393, “Neuroprotective and cholinergic properties of multifunctional glutamic acid derivatives for the treatment of Alzheimer's disease” (J Med Chem, 2009).

Columns and labels:
Cholinesterase [1] = biological target: Cholinesterase (Homo sapiens, UniProt P06276); experiment: Inhibition of human BuChE in serum; format: cell-free
Acetylcholinesterase [2] = biological target: T1, Acetylcholinesterase (Homo sapiens, UniProt P22303); experiment: Displacement of propidium iodide from AChE peripheral anionic site at 0.3 uM
T1 sequence (P22303 whole entry): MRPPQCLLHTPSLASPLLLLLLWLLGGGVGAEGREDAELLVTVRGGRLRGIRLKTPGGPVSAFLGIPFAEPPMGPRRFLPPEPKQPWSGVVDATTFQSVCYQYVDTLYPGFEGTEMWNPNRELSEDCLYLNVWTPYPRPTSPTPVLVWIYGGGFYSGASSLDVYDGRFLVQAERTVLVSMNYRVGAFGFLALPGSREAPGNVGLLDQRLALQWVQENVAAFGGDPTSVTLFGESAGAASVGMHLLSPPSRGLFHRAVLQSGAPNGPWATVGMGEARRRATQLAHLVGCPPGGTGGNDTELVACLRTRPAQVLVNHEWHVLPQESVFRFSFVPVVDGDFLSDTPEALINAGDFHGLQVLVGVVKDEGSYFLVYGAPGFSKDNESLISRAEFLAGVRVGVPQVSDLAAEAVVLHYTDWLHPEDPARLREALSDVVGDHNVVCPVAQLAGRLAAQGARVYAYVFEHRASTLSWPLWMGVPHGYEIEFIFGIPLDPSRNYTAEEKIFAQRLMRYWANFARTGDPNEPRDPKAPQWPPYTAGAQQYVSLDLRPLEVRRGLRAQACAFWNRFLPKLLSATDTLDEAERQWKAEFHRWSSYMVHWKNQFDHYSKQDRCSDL

Acetylcholinesterase [3] = biological target: T1, Acetylcholinesterase; experiment: Displacement of propidium iodide from AChE peripheral anionic site at 1 uM
Acetylcholinesterase [4] = biological target: T1, Acetylcholinesterase; experiment: Displacement of propidium iodide from AChE peripheral anionic site at 3 uM
SH-SY5Y [5] = experiment: Neuroprotective activity against human SH-SY5Y cells assessed as protection reduction in H2O2-induced LDH release at 1 uM after 24 hrs; format: functional; set-up: scale not given: the % may be the effect or the level left
SH-SY5Y [6] = experiment: Neuroprotective activity against human SH-SY5Y cells assessed as protection reduction in H2O2-induced LDH release at 3 uM after 24 hrs; format: functional; set-up: scale not given: the % may be the effect or the level left
SH-SY5Y [7] = experiment: Neuroprotective activity against human SH-SY5Y cells assessed as protection reduction in H2O2-induced LDH release at 10 uM after 24 hrs; format: functional; set-up: scale not given: the % may be the effect or the level left
SH-SY5Y [8] = experiment: Neuroprotective activity against human SH-SY5Y cells assessed as protection reduction in H2O2-induced LDH release at 30 uM after 24 hrs; format: functional; set-up: scale not given: the % may be the effect or the level left
SH-SY5Y [9] = experiment: Neuroprotective activity against H2O2-induced human SH-SY5Y cells assessed as cell viability at 30 uM after 24 hrs; format: functional; details: read-out: Activity
SH-SY5Y [10] = experiment: Neuroprotective activity against rotenone/oligomycin A-treated human SH-SY5Y cells assessed as cytoprotection at 0.1 uM pretreated 24 hrs before rotenone/oligomycin A challenge; format: functional
SH-SY5Y [11] = experiment: Neuroprotective activity against rotenone/oligomycin A-treated human SH-SY5Y cells assessed as cytoprotection at 0.3 uM pretreated 24 hrs before rotenone/oligomycin A challenge; format: functional
SH-SY5Y [12] = experiment: Neuroprotective activity against rotenone/oligomycin A-treated human SH-SY5Y cells assessed as cytoprotection at 1 uM pretreated 24 hrs before rotenone/oligomycin A challenge; format: functional
SH-SY5Y [13] = experiment: Neuroprotective activity against human SH-SY5Y cells assessed as cytoprotection at 0.1 uM coincubated with rotenone/oligomycin A measured after 24 hrs; format: functional
SH-SY5Y [14] = experiment: Neuroprotective activity against human SH-SY5Y cells assessed as cytoprotection at 0.3 uM coincubated with rotenone/oligomycin A measured after 24 hrs; format: functional
SH-SY5Y [15] = experiment: Neuroprotective activity against human SH-SY5Y cells assessed as cytoprotection at 1 uM coincubated with rotenone/oligomycin A measured after 24 hrs; format: functional
Cholinesterase [16] = biological target: Cholinesterase (Equus caballus, UniProt P81908)
Cholinesterase (Equus caballus, UniProt P81908), sequence (P81908 whole entry): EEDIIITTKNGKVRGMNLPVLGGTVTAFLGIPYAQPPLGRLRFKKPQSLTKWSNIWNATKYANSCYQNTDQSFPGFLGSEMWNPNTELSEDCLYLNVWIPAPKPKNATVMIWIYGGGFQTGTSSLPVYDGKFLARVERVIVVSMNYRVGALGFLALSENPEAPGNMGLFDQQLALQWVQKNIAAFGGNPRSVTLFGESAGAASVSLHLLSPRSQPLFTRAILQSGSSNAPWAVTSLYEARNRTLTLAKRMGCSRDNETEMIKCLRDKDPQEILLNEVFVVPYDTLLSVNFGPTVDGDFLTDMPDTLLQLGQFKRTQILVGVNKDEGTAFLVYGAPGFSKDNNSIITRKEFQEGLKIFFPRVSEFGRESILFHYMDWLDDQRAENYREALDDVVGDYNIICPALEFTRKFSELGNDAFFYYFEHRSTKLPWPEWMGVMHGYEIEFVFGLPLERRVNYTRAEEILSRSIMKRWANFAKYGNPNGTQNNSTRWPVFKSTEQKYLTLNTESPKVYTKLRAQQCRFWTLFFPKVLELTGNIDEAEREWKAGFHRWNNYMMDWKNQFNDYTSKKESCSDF
Description: Inhibition of BuChE in horse serum by Ellman method

Acetylcholinesterase [17] = biological target: T1, Acetylcholinesterase
Description: Inhibition of human AChE in erythrocyte

Acetylcholinesterase [18] = biological target: T2, Acetylcholinesterase (Bos taurus, UniProt P23795)
T2 sequence (P23795 whole entry): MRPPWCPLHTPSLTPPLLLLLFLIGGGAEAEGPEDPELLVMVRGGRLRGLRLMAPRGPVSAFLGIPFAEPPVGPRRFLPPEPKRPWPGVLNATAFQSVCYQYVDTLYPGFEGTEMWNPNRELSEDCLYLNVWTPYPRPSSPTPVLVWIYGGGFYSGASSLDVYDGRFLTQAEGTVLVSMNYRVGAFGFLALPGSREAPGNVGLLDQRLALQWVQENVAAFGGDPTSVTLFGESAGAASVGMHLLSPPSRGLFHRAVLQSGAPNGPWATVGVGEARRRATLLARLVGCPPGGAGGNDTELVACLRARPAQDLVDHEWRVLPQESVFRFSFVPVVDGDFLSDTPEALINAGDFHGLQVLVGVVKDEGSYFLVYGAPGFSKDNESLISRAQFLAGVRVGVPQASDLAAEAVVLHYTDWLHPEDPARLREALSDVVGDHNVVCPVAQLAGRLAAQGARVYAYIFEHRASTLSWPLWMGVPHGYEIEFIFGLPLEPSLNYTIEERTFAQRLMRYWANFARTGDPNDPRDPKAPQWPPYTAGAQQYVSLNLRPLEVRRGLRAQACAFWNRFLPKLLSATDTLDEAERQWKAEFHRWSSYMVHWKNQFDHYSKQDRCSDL
Description: Inhibition of AChE in bovine erythrocyte by Ellman method

in vitro = details: PAMPA
Description: Permeability across PAMPA membrane

SH-SY5Y [19] = experiment: Neuroprotective activity against rotenone/oligomycin A-treated human SH-SY5Y cells assessed as cytoprotection at 3 uM pretreated 24 hrs before rotenone/oligomycin A challenge; format: functional
SH-SY5Y [20] = experiment: Neuroprotective activity against human SH-SY5Y cells assessed as cytoprotection at 3 uM coincubated with rotenone/oligomycin A measured after 24 hrs; format: functional

Cholinesterase (Homo sapiens, UniProt P06276), sequence (P06276 whole entry): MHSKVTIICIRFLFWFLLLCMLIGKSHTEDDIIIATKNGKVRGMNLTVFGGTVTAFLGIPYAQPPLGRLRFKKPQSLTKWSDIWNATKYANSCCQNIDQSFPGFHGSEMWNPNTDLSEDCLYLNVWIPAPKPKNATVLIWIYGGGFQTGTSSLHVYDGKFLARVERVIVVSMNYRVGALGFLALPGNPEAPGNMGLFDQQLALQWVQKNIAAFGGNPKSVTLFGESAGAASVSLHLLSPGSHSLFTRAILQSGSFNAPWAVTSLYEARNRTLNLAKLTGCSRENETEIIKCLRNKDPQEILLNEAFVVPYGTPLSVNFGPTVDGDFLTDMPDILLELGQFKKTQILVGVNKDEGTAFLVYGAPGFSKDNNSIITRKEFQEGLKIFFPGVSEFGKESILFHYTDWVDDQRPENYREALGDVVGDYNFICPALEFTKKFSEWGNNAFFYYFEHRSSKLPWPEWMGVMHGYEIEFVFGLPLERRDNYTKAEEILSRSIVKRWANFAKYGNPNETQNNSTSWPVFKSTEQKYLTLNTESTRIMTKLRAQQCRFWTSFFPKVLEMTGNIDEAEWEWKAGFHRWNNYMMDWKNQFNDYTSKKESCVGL

| SMILES | IC50 (Cholinesterase [1]) [nM] | Activity (Acetylcholinesterase [2]) [%] | Activity (Acetylcholinesterase [3]) [%] | Activity (Acetylcholinesterase [4]) [%] | Activity (SH-SY5Y [5]) [%] | Activity (SH-SY5Y [6]) [%] | Activity (SH-SY5Y [7]) [%] | Activity (SH-SY5Y [8]) [%] | viability at 30 µM (SH-SY5Y [9]) [%] | Activity (SH-SY5Y [11]) [%] | Activity (SH-SY5Y [12]) [%] | Activity (SH-SY5Y [14]) [%] | Activity (SH-SY5Y [15]) [%] | IC50 (Cholinesterase [16]) [nM] | IC50 (Acetylcholinesterase [17]) [nM] | IC50 (Acetylcholinesterase [18]) [nM] | Papp (in vitro) [×10⁻⁶ cm/s] | also measured |
| --- | --- | --- | --- | --- | --- | --- | --- | --- | --- | --- | --- | --- | --- | --- | --- | --- | --- | --- |
| CCCCCCOC(=O)[C@H](CCC(=O)NCCC1CCN(Cc2ccccc2)CC1)NC(=O)c1cccs1 | 1800 | 7.5 | 10.3 | 15 | 55.1 | 64.5 | 73 | 31.8 | 100 | 27.1 | 22.3 | 0 | 7 | 1000 | 500 | 3500 | 20.9 | Activity (SH-SY5Y [10]): 48.9%; Activity (SH-SY5Y [13]): 0% |
| CCCCCCOC(=O)[C@H](CCC(=O)NCCC1CCN(Cc2ccccc2)CC1)NC(=O)c1cc(Br)cs1 | 850 | 11.3 | < 0.5 | < 0.5 | 63.3 | 84.3 | 66.7 | 66.7 | 100 | 19 | 27.8 | 19.7 | 0 | 750 | 180 | 1200 | – | Activity (SH-SY5Y [19]): 21.4%; Activity (SH-SY5Y [20]): 19.6% |
| CCCCCCOC(=O)[C@H](CCC(=O)NCCC1CCN(Cc2ccccc2)CC1)NC(=O)c1cc2ccsc2s1 | 350 | 42.2 | 33.3 | 23.3 | 54.5 | 41.6 | 46.4 | 20.3 | 100 | 46.1 | 45.4 | 20.8 | 30.8 | 700 | 300 | 3500 | 28.5 | Activity (SH-SY5Y [10]): 34.8%; Activity (SH-SY5Y [13]): 22.3% |
| CCCCCCOC(=O)[C@H](CCC(=O)NCCC1CCN(Cc2ccccc2)CC1)NC(=O)c1cc2cccnc2s1 | 830 | 37.4 | 35.4 | 27.2 | 0 | 30.7 | 27.9 | 48.8 | 100 | – | – | – | – | 950 | 440 | 330 | 18.8 | – |
| CCCCCCOC(=O)[C@H](CCC(=O)NCCC1CCN(Cc2ccccc2)CC1)NC(=O)OCc1ccccc1 | 730 | 20.8 | 25 | 29.3 | 4.1 | 17.4 | 39.1 | 5.3 | 100 | – | – | – | – | 750 | 250 | 1400 | – | – |
| CCCCCCOC(=O)[C@H](CCC(=O)NCCC1CCN(Cc2ccccc2)CC1)NC(=O)OC(C)(C)C | 3000 | 42.3 | 43.6 | 42 | 24.9 | 1.7 | 0 | 0 | 100 | – | – | – | – | 3500 | 950 | 5000 | 11.6 | – |
| Cc1c(C)c2c(c(C)c1O)CCC(C)(C(=O)O)O2 (centres undefined) [TROLOX] | – | – | – | – | 0 | 0 | – | 57.7 | – | – | – | – | – | – | – | – | – | Activity (SH-SY5Y [19]): 65.1%; Activity (SH-SY5Y [20]): 63.7% |
| C=CC[N+](C)(C)c1ccc(CCC(=O)CCc2ccc([N+](C)(C)CC=C)cc2)cc1 | – | – | – | 16 | – | – | – | – | – | – | – | – | – | – | – | – | – | – |
| CCCCCCOC(=O)[C@H](CCC(=O)NCCC1CCN(Cc2ccccc2)CC1)NC(=O)c1cc2ccccc2s1 | 330 | 31.5 | 26.5 | 39.7 | 28.7 | 20.9 | 21.2 | 17.9 | 100 | – | – | – | – | 550 | 270 | 2500 | 25.6 | – |
| CCCCCCOC(=O)[C@H](CCC(=O)NCCC1CCN(Cc2ccccc2)CC1)NC(=O)Cc1cc2ccc(Cl)cc2s1 | 70 | 14.7 | 16 | 23.4 | 26.2 | 32.5 | 0 | 0 | 100 | – | – | – | – | 50 | 100 | 2300 | – | – |
| CCCCCCOC(=O)[C@H](CCC(=O)NCCC1CCN(Cc2ccccc2)CC1)NC(=O)c1ccccc1 | 1750 | 24.7 | 15.9 | 37.3 | 43.9 | 68.1 | 52.4 | 67 | 100 | 47.9 | 43.8 | 20.1 | 21 | 1500 | 530 | 1900 | 18.7 | Activity (SH-SY5Y [19]): 38.5%; Activity (SH-SY5Y [20]): 15.1% |
